Values quoted from earlier work as cited in patent US20090029375A1, “GENETIC MODELS FOR STRATIFICATION OF CANCER RISK” (Intergenetics, Inc., priority 2007, published 2009).

How the values were obtained:
[1] = tested on: rat mammary carcinoma induced by dimethylbenzanthracene (DMBA)
[2] = tested on: estrogen receptors; settings: preclinical data, uterine and breast tissues
[3] = tested on: breast cancer; settings: osteoporosis prevention/treatment study

| estrogen antagonism [2] | Compound | induction of rat mammary carcinoma [1] | effect on incidence of breast cancer [3] |
| --- | --- | --- | --- |
|  | CC/C(=C(\c1ccccc1)c1ccc(OCCN(C)C)cc1)c1ccccc1 [tamoxifen] | inhibits the induction |  |
| estrogen antagonist | O=C(c1ccc(OCCN2CCCCC2)cc1)c1c(-c2ccc(O)cc2)sc2cc(O)ccc12 [raloxifene] |  | reduce the incidence of breast cancer |
